Source: paper PMC2241863 (Nucleic Acids Research, 2007)

How the values were obtained:
[1] = system: E. coli RPR; conditions: cited from earlier work
[2] = system: E. coli RNase P holoenzyme; experiment: E. coli RNase P holoenzyme ptRNATyr processing assay, 'high-salt' buffer; format: biochemical, Escherichia coli; conditions: 1 mM added to assay
[3] = system: E. coli RNase P holoenzyme; conditions: cited from earlier work
[4] = biological target: bacterial RNase P; conditions: 'low-salt' buffer, cited from earlier work; for IC50: read-out: IC50 for inhibition of bacterial RNase P
[5] = system: human RNase P; conditions: cited from earlier work

Structure (SMILES)	Effect on E. coli RNase P holoenzyme activity [2]	IC50 [4] [µM]	also measured
NC[C@@H]1O[C@H](O[C@H]2[C@@H](O)[C@H](O[C@@H]3[C@@H](O)[C@H](N)C[C@H](N)[C@H]3O[C@H]3O[C@H](CO)[C@@H](O)[C@H](O)[C@H]3N)O[C@@H]2CO)[C@H](N)[C@@H](O)[C@@H]1O [Par, paromomycin]	–	–	Fold weaker than NeoB in inhibiting bacterial RPR [1]: 6 fold
NCCCC[C@H](N)C(=O)O [lysine]	no effect	–	–
NC[C@@H]1O[C@H](O[C@H]2[C@@H](O)[C@H](O[C@@H]3[C@@H](O)[C@H](N)C[C@H](N)[C@H]3O[C@H]3O[C@H](CN)[C@@H](O)[C@H](O)[C@H]3N)O[C@@H]2CO)[C@H](N)[C@@H](O)[C@@H]1O [NeoB, neomycin B]	–	60	Increase in IC50 in 'high-salt' instead of 'low-salt' buffer [3]: 7 fold; Increase in IC50 with mutations in E. coli RPR L15 loop ([1]; L15 mutations that weaken Mg2+ binding): 3 fold
N=C(N)NCCC[C@H](N)C(=O)NC[C@@H]1O[C@H](O[C@H]2[C@@H](O)[C@H](O[C@@H]3[C@@H](O)[C@H](NC(=O)[C@@H](N)CCCNC(=N)N)C[C@H](NC(=O)[C@@H](N)CCCNC(=N)N)[C@H]3O[C@H]3O[C@H](CNC(=O)[C@@H](N)CCCNC(=N)N)[C@@H](O)[C@H](O)[C@H]3NC(=O)[C@@H](N)CCCNC(=N)N)O[C@@H]2CO)[C@H](NC(=O)[C@@H](N)CCCNC(=N)N)[C@@H](O)[C@@H]1O [NeoR6]	–	0.125	Potency of NeoR6 relative to NeoB in inhibiting bacterial RNase P [4]: 500 fold; Effectiveness against human RNase P compared with bacterial RNase P [5]: not as effective
N=C(N)N [guanidine]	no effect	–	–
N=C(N)NCCC[C@H](N)C(=O)O [arginine]	no effect	–	–
